Laboratory results from ChEMBL document CHEMBL3400149, “Discovery of novel spiro 1,3,4-thiadiazolines as potent, orally bioavailable and brain penetrant KSP inhibitors” (Bioorg Med Chem, 2015).
The source made the active and inactive calls. The calls are words filed in the database; no cut-off is given here.

Columns and labels:
[1] = Oral bioavailability in Sprague-Dawley rat at 10 mg/kg; format: ADME, organism-based; conditions: in vivo
[2] = AUC in CD1 mouse at 10 mg/kg, po; format: ADME, organism-based; parameters: dose 10 mg/kg, route oral; conditions: plasma
[3] = AUC in Sprague-Dawley rat at 1 mg/kg, iv; format: ADME, organism-based; parameters: dose 1 mg/kg, route intravenous; conditions: plasma
[4] = target: T1, Kinesin-like protein KIF11 (Homo sapiens, UniProt P52732); assay: Inhibition of KSP in human HCT116 cells assessed as phos-histone H3 level by immunofluorescent assay; format: cell-based, HCT-116
T1 sequence (P52732 whole entry): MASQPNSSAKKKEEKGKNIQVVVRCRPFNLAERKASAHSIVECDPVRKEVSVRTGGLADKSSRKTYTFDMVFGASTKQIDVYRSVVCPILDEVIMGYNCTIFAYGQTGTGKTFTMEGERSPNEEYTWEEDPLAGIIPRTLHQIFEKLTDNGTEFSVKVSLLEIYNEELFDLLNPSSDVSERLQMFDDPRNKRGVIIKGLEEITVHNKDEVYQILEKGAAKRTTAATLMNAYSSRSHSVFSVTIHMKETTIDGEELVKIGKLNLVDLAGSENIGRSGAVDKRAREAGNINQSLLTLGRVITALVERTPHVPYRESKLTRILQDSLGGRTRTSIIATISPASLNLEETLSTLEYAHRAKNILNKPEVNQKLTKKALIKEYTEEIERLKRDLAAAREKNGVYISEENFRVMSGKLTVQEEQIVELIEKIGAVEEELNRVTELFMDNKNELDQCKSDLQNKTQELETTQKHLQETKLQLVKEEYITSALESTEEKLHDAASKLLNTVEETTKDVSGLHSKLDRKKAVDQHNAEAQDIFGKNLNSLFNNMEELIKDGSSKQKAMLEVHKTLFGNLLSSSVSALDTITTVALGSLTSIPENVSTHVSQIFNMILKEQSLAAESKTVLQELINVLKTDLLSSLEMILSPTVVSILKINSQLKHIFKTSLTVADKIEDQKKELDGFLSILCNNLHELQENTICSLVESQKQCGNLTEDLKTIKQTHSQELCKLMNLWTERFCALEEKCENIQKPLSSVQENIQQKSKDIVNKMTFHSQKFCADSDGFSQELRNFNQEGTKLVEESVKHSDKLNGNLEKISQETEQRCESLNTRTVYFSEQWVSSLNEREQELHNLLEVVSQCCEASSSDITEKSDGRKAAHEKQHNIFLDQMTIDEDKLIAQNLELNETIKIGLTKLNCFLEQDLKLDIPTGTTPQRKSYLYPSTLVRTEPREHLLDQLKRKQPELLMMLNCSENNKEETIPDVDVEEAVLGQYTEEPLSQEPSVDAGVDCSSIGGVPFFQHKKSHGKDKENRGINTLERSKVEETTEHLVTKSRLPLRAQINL

[5] = Oral bioavailability in CD1 mouse at 10 mg/kg; format: ADME, organism-based; conditions: in vivo
[6] = Cmax in Sprague-Dawley rat at 10 mg/kg, po; format: ADME, organism-based; parameters: dose 10 mg/kg, route oral; conditions: in vivo
[7] = AUC in CD1 mouse at 5 mg/kg, iv; format: ADME, organism-based; parameters: dose 5 mg/kg, route intravenous; conditions: plasma
[8] = Cmax in CD1 mouse at 10 mg/kg, po; format: ADME, organism-based; parameters: dose 10 mg/kg, route oral; conditions: in vivo
[9] = Clearance in CD1 mouse at 5 mg/kg, iv; format: ADME, organism-based; parameters: dose 5 mg/kg, route intravenous; conditions: in vivo
[10] = Clearance in Sprague-Dawley rat at 1 mg/kg, iv; format: ADME, organism-based; parameters: dose 1 mg/kg, route intravenous; conditions: in vivo
[11] = AUC in Sprague-Dawley rat at 10 mg/kg, po; format: ADME, organism-based; parameters: dose 10 mg/kg, route oral; conditions: plasma
[12] = Volume of distribution at steady state in beagle dog at 1 mg/kg, iv; format: ADME, organism-based, Canis lupus familiaris; parameters: dose 1 mg/kg, route intravenous; conditions: in vivo, read-out: Vdss
[13] = Half life in CD1 mouse at 5 mg/kg, iv; format: ADME, organism-based; parameters: dose 5 mg/kg, route intravenous; conditions: in vivo
[14] = Retention time of the compound; format: physicochemical
[15] = Cmax in beagle dog at 5 mg/kg, po; format: ADME, organism-based, Canis lupus familiaris; parameters: dose 5 mg/kg, route oral; conditions: in vivo
[16] = Volume of distribution at steady state in Sprague-Dawley rat at 1 mg/kg, iv; format: ADME, organism-based; parameters: dose 1 mg/kg, route intravenous; conditions: in vivo, read-out: Vdss
[17] = Oral bioavailability in Sprague-Dawley rat at 50 mg/kg; format: ADME, organism-based; conditions: in vivo
[18] = AUC in beagle dog at 5 mg/kg, po; format: ADME, organism-based, Canis lupus familiaris; parameters: dose 5 mg/kg, route oral; conditions: plasma
[19] = Cmax in CD1 mouse at 5 mg/kg, po; format: ADME, organism-based; parameters: dose 5 mg/kg, route oral; conditions: in vivo
[20] = AUC in Sprague-Dawley rat at 50 mg/kg, po; format: ADME, organism-based; parameters: dose 50 mg/kg, route oral; conditions: plasma
[21] = AUC in CD1 mouse at 5 mg/kg, po; format: ADME, organism-based; parameters: dose 5 mg/kg, route oral; conditions: plasma
[22] = test system: HCT-116; assay: Induction of mitotic arrest in human HCT116 cells assessed as increase mitosis at 1.6 nM after 24 hrs by propidium iodine staining based FACS analysis; format: functional, cell-based
[23] = AUC in beagle dog at 1 mg/kg, iv; format: ADME, organism-based, Canis lupus familiaris; parameters: dose 1 mg/kg, route intravenous; conditions: plasma
[24] = Clearance in beagle dog at 1 mg/kg, iv; format: ADME, organism-based, Canis lupus familiaris; parameters: dose 1 mg/kg, route intravenous; conditions: in vivo
[25] = Half life in beagle dog at 1 mg/kg, iv; format: ADME, organism-based, Canis lupus familiaris; parameters: dose 1 mg/kg, route intravenous; conditions: in vivo
[26] = Volume of distribution at steady state in CD1 mouse at 5 mg/kg, iv; format: ADME, organism-based; parameters: dose 5 mg/kg, route intravenous; conditions: in vivo, read-out: Vdss
[27] = Oral bioavailability in CD1 mouse at 5 mg/kg; format: ADME, organism-based; conditions: in vivo
[28] = Cmax in Sprague-Dawley rat at 50 mg/kg, po; format: ADME, organism-based; parameters: dose 50 mg/kg, route oral; conditions: in vivo
[29] = Oral bioavailability in beagle dog at 5 mg/kg; format: ADME, organism-based, Canis lupus familiaris; conditions: in vivo
[30] = test system: HCT-116; assay: Induction of mitotic arrest in human HCT116 cells assessed as increase in […] spindle formation at 6.25 nM after 16 hrs by propidium iodine staining based FACS analysis; format: functional, cell-based
[31] = Half life in Sprague-Dawley rat at 1 mg/kg, iv; format: ADME, organism-based; parameters: dose 1 mg/kg, route intravenous; conditions: in vivo
[32] = test system: HCT-116; assay: Induction of mitotic arrest in human HCT116 cells assessed as increase in 4N DNA content at 1.6 nM after 16 hrs by propidium iodine staining based FACS analysis; format: functional
[33] = Permeability across basolateral to apical side in human Caco2 cells; format: ADME, cell-based; conditions: Caco-2, read-out: permeability
[34] = Antitumor activity against human COLO205 cells xenografted in mouse assessed as tumor growth inhibition at 5 mg/kg, po q3d measured on day 35; format: functional; conditions: COLO 205, 840 h
[35] = Antitumor activity against human U373 cells xenografted in mouse assessed as tumor growth inhibition at 5 mg/kg, po q3d measured on day 35; format: functional, U-373MG ATCC; conditions: 840 h
[36] = Cmax in beagle dog at 10 mg/kg, po; format: ADME, organism-based, Canis lupus familiaris; parameters: dose 10 mg/kg, route oral; conditions: in vivo
[37] = Antitumor activity against human COLO205 cells xenografted in mouse assessed as tumor growth inhibition at 7.5 mg/kg, po q3d measured on day 35; format: functional; conditions: COLO 205, 840 h
[38] = AUC ratio of drug uptake from brain to plasma in rat; format: ADME
[39] = Oral bioavailability in beagle dog at 10 mg/kg; format: ADME, organism-based, Canis lupus familiaris; conditions: in vivo
[40] = AUC ratio of drug uptake from brain to plasma in mouse; format: ADME, organism-based
[41] = AUC in beagle dog at 10 mg/kg, po; format: ADME, organism-based, Canis lupus familiaris; parameters: dose 10 mg/kg, route oral; conditions: plasma
[42] = Permeability across apical to basolateral side in human Caco2 cells; format: ADME, cell-based; conditions: Caco-2, read-out: permeability
[43] = Oral bioavailability in monkey; format: ADME, organism-based, Macaca mulatta; conditions: rhesus monkey, in vivo
[44] = Antitumor activity against human U373 cells xenografted in mouse assessed as tumor growth inhibition at 7.5 mg/kg, po q3d measured on day 35; format: functional, U-373MG ATCC; conditions: 840 h

CC(=O)N1N=C(c2cc(F)ccc2F)S[C@@]12c1cc(F)ccc1OC[C@H]2CCN
bioavailability [1]: 8%
AUC [2]: 3.3 µM·h
AUC [3]: 0.37 µM·h
EC50 [4]: 1 nM
bioavailability [5]: 64%
Cmax [6]: 17 nM
AUC [7]: 2.6 µM·h
Cmax [8]: 770 nM
clearance [9]: 76 mL/min/kg
clearance [10]: 109 mL/min/kg
AUC [11]: 0.15 µM·h

COCC(=O)N1N=C(c2cc(F)ccc2F)SC12CCOc1ccccc12 (centres undefined)
EC50 [4]: 665 nM

CC(=O)N1N=C(c2cc(F)ccc2F)S[C@@]12c1ccccc1OC[C@H]2CCN
Vd [12]: 3.9 L/kg
half-life [13]: 1.8 h
Retention_time [14]: 4.08 min
Cmax [15]: 300 nM
Vd [16]: 8.6 L/kg
bioavailability [17]: 9%
AUC [3]: 0.8 µM·h
AUC [18]: 1.4 µM·h
Cmax [19]: 100 nM
AUC [20]: 3.6 µM·h
EC50 [4]: 2 nM
AUC [21]: 0.3 µM·h
Activity [22]: Active
AUC [23]: 3 µM·h
clearance [24]: 13.7 mL/min/kg
half-life [25]: 3.9 h
Vd [26]: 6.4 L/kg
bioavailability [27]: 12%
AUC [7]: 2.3 µM·h
Cmax [28]: 600 nM
bioavailability [29]: 9%
Activity [30]: Active
half-life [31]: 2 h
Activity [32]: 70%
clearance [9]: 90 mL/min/kg
clearance [10]: 46 mL/min/kg

CN(C)CCCC(=O)N1N=C(c2cc(F)ccc2F)SC12CCOc1ccccc12 (centres undefined)
EC50 [4]: 263 nM

CC(=O)N1N=C(c2cc(F)ccc2F)SC12c1ccccc1OCC2CCN (racemic)
EC50 [4]: 5 nM

CC(=O)N1N=C(c2cc(F)ccc2F)SC12CCSc1ccccc12 (centres undefined)
EC50 [4]: 3310 nM

CC(=O)N1N=C(c2cc(F)ccc2F)S[C@@]12c1cccc(F)c1OC[C@H]2CCN
AUC [2]: 1.3 µM·h
EC50 [4]: 5 nM
bioavailability [5]: 46%
AUC [7]: 1.5 µM·h
Cmax [8]: 430 nM
clearance [9]: 136 mL/min/kg

CNCCCC(=O)N1N=C(c2cc(F)ccc2F)SC12CCOc1ccccc12 (centres undefined)
EC50 [4]: 367 nM

NCCCC(=O)N1N=C(c2cc(F)ccc2F)SC12CCOc1ccccc12 (centres undefined)
EC50 [4]: 338 nM

CCC(=O)N1N=C(c2cc(F)ccc2F)SC12CCOc1ccccc12 (centres undefined)
EC50 [4]: 452 nM

CC(=O)N1N=C(c2cc(F)ccc2F)S[C@]12c1ccccc1OC[C@@H]2CCN
Retention_time [14]: 2.33 min
EC50 [4]: > 1000 nM

CC(=O)N1N=C(c2cc(F)ccc2F)SC12COc1ccccc12 (centres undefined)
EC50 [4]: 246 nM

CC(=O)N1N=C(c2cc(F)ccc2F)S[C@@]12c1cc(F)c(F)cc1OC[C@H]2CCN
bioavailability [1]: 64%
Papp B→A [33]: 11.5 ×10⁻⁶ cm/s
AUC [2]: 7.9 µM·h
AUC [3]: 0.8 µM·h
inhibition in vivo at 5 mg/kg [34]: 116%
inhibition in vivo at 5 mg/kg [35]: 31%
Cmax [36]: 500 nM
EC50 [4]: 3 nM
inhibition in vivo at 7.5 mg/kg [37]: 126%
bioavailability [5]: 87%
Cmax [6]: 220 nM
AUC [23]: 3.1 µM·h
clearance [24]: 12 mL/min/kg
Kp [38]: 4
AUC [7]: 4.6 µM·h
Cmax [8]: 1030 nM
bioavailability [39]: 44%
Kp [40]: 4
AUC [41]: 6.9 µM·h
clearance [9]: 42 mL/min/kg
Papp A→B [42]: 10.6 ×10⁻⁶ cm/s
clearance [10]: 49 mL/min/kg
bioavailability [43]: 53%
inhibition in vivo at 7.5 mg/kg [44]: 69%
AUC [11]: 2.5 µM·h

CC(C)(C)C(=O)N1N=C(c2cc(F)ccc2F)SC12CCOc1ccccc12 (centres undefined)
EC50 [4]: > 1000 nM
